Molecules are shown by their SMILES.

This note sets out measurements from patent US12729192B2, “CDK9 inhibitor and use thereof” (PHARMABLOCK SCIENCES (NANJING), INC., priority 2020, dated 2026).

Format in all cases: biochemical
One experiment deals with CDK9 (Homo sapiens, UniProt P50750). In words: CDK9 kinase activity inhibition (ADP-Glo). The conditions noted are these: 10 μM ATP, 2 h at room temperature. The method, then: (§1) CDK9 kinase was manufactured by the company or commercially available. CDK1, CDK2 and CDK7 were purchased from Carna Biosciences, Inc. ADP-Glo™ kit was purchased from Promega Corporation. Dithiothreitol (DTT), Tween-20, dimethylsulfoxide (DMSO), bovine serum albumin (BSA) and Tris base were obtained from Sigma at the available highest level of purity.
(§2) General procedures for CDK inhibition determination: The determination was performed in a buffer consisting of 50 μM DTT, 0.1% BSA, 40 mM Tris-HCl pH=7.5 and 20 mM MgCl2. The compound dissolved in DMSO and CDK enzymes were diluted with the buffer. 1 μL of the compound solution in 5% DMSO and 2 μL of the CDK enzyme solution were added to a white low-volume 384-well microtiter plate and incubated for 20 min at room temperature. Ultra pure ATP and the substrate polypeptide (purchased from GenScript Biotech Corporation) were diluted together into the buffer and added to a mixed solution of the compound and the enzyme, 2 μL per well. They were incubated for 2 h at room temperature.
(§3) After the reaction was completed, 5 μL of ADP-Glo™ reagent was added to each well and incubated for 40 min at room temperature, and then 10 μL of test reagent was added to each well and incubated for 30 mi at room temperature. Chemical luminescence values were measured by using a Tecan (Männedorf, Switzerland) multifunctional plate reader Spark for plate reading. The IC50 value of the inhibitor was obtained by fitting the chemical luminescence intensity ratio in the S-shaped dosage reaction curve using Prism 7 (La Jolla, 15 CA) relative to the concentration of the inhibitor.
In general terms: ADP-Glo first removes unused ATP, then detects ADP through luciferase.

In a further experiment the target is T1, CDK2 (Homo sapiens, UniProt P24941).
T1 construct: purchased Carna Biosciences, Inc
Kind of experiment: CDK2 kinase activity inhibition (ADP-Glo). The conditions noted are these: 10 μM ATP, 2 h at room temperature. As to the method: as §1, §2, §3

The target in another experiment is T2, CDK7 (Homo sapiens, UniProt P50613).
T2 construct: purchased Carna Biosciences, Inc
In words: CDK7 kinase activity inhibition (ADP-Glo). The conditions noted are these: 10 μM ATP, 2 h at room temperature. As to the method:
as §1, §2, §3

The target of the next experiment is T3, CDK1 (Homo sapiens, UniProt P06493).
T3 construct: purchased Carna Biosciences, Inc
Kind of experiment: CDK1 kinase activity inhibition (ADP-Glo). The conditions noted are these: 50 μM ATP, 2 h at room temperature. The method, then:
as §1, §2, §3

Sequence of CDK9 (P50750 whole entry): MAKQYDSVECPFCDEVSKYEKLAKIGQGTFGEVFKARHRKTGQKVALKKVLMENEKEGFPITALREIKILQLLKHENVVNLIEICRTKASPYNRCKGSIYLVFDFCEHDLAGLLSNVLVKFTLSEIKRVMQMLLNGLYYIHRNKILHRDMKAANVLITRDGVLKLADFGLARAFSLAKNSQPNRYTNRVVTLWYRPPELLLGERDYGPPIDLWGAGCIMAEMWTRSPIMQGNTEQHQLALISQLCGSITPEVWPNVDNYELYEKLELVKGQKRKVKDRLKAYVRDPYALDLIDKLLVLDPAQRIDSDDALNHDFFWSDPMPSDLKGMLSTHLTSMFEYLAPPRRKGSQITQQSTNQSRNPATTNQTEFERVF
Sequence of CDK9 (O60563 whole entry partner): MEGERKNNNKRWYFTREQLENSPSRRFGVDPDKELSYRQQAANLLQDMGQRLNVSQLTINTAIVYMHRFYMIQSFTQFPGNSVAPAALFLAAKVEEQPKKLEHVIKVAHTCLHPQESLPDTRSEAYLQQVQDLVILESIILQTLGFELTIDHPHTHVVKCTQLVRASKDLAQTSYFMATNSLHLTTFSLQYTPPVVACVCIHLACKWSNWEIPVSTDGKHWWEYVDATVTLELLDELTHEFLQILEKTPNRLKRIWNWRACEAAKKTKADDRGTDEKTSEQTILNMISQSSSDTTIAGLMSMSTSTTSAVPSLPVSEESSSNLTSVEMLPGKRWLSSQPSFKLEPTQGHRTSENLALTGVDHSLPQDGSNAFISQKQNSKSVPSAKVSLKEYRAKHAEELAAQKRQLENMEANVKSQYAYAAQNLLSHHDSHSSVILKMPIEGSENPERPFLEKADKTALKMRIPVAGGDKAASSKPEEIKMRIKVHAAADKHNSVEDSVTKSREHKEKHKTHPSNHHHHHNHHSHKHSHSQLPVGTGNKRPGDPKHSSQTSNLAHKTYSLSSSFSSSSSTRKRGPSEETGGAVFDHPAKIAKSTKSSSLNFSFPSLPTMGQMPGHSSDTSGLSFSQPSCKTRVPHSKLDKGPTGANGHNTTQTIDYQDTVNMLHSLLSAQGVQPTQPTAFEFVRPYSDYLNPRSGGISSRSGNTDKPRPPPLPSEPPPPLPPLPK
T3 sequence (P06493 whole entry): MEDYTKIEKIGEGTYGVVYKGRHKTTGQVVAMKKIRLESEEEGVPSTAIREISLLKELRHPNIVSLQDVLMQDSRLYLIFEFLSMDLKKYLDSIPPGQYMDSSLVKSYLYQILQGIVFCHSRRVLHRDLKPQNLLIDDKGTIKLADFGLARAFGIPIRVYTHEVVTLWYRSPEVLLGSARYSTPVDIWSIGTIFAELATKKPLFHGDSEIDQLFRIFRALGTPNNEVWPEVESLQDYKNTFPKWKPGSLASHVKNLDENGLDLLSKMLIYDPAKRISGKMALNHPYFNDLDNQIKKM
T3 sequence (P14635 whole entry partner): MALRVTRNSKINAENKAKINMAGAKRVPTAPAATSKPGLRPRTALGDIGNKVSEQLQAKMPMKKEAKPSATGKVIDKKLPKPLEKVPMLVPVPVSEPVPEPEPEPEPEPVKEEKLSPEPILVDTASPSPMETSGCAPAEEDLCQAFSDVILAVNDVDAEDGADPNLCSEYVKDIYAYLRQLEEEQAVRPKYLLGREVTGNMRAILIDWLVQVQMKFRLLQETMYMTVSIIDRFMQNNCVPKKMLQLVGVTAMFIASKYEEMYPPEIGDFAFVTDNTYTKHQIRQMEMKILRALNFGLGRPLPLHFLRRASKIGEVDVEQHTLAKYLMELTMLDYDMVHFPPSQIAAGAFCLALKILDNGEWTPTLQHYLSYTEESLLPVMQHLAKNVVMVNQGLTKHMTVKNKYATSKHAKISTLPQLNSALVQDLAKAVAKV
T2 sequence (P50613 whole entry): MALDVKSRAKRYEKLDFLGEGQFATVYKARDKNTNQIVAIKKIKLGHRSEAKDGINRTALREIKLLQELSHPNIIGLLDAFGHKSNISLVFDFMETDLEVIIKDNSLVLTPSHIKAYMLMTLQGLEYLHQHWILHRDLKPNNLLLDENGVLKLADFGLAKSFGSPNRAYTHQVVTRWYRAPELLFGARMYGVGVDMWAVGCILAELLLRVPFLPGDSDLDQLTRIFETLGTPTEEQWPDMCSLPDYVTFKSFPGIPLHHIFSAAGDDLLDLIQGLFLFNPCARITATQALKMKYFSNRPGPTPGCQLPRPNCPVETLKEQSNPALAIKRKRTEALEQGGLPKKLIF
T2 sequence (P51946 whole entry partner): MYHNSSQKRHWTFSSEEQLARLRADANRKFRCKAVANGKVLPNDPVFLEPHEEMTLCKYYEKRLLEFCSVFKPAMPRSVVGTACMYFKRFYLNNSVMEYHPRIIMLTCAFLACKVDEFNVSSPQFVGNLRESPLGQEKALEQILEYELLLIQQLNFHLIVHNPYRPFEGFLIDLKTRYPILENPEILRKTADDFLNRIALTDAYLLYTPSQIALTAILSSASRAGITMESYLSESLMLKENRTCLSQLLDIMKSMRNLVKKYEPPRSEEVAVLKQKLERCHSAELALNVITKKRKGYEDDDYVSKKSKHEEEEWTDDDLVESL
T2 sequence (P51948 whole entry partner): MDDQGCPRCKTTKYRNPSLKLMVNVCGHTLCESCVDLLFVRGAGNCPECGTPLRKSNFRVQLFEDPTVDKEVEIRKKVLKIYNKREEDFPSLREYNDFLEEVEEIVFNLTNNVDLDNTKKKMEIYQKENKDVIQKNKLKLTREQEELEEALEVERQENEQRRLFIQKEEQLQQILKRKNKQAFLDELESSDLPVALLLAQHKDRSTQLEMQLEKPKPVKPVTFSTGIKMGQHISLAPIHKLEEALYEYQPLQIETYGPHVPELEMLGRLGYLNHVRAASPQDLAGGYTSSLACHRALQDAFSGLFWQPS

With `CC(=O)NC[C@H]1CCC(F)(F)CN1C(=O)c1nc(Nc2cc(C)ccn2)ccc1C` [Compound 8, (R)—N-((5,5-difluoro-1-(3-methyl-6-((4-methylpyridin-2-yl)amino)pyridine-2-carbonyl)piperidin-2-yl)methyl)acetamide], the 50% inhibitory concentration (IC50) (commonly the concentration needed to halve the response being measured) is 8.9 nM against CDK9, 2590 nM against CDK2, 8380 nM against CDK7 and 8730 nM on CDK1.

As for `COc1ccnc(Nc2ccc(C)c(C(=O)N3CC(F)(F)CC[C@@H]3CNC(C)=O)n2)c1` [Compound 9, (R)—N-((5,5-difluoro-1-(6-((4-methoxypyridin-2-yl)amino)-3-methylpyridine-2-carbonyl)piperidin-2-yl)methyl)acetamide], the IC50 against CDK9 is 7.8 nM; at CDK2 it was 8450 nM; at CDK7 it was more than 10000 nM; against CDK1, more than 10000 nM.

`COc1cc(Nc2ccc(C)c(C(=O)N3CC(F)(F)CC[C@@H]3CNC(C)=O)n2)ncc1Cl` [Compound 10, (R)—N-((1-(6-((5-chloro-4-methoxypyridin-2-yl)amino)-3-methylpyridine-2-carbonyl)-5,5-difluoropiperidin-2-yl)methyl)acetamide]: the half-inhibitory concentration (IC50) on CDK9 is 361 nM; against CDK2, more than 10000 nM; at CDK7 it was 9860 nM; against CDK1, more than 10000 nM.

Regarding `CC(=O)NC[C@H]1CCC(F)(F)CN1C(=O)c1nc(Nc2cc(-c3cnn4c3CCC4)c(F)cn2)ccc1C` [Compound 14, (R)—N-((1-(6-((4-(5,6-dihydro-4H-pyrrolo[1,2-b]pyrazol-3-yl)-5-fluoropyridin-2-yl)amino)-3-methylpyridine-2-carbonyl)-5,5-difluoropiperidin-2-yl)methyl)acetamide], the concentration for half-maximal inhibition (IC50) amounted to 107 nM on CDK9, 1600 nM against CDK2 and 1880 nM against CDK7.

In the case of `CC(=O)NC[C@H]1CCC(F)(F)CN1C(=O)c1nc(Nc2cc(C3CC(F)(F)C3)[nH]n2)ccc1C` [Compound 15, (R)—N-((1-(6-((5-(3,3-difluorocyclobutyl)-1H-pyrazol-3-yl)amino)-3-methylpyridine-2-carbonyl)-5,5-difluoropiperidin-2-yl)methyl)acetamide], the IC50 against CDK9 was 4.3 nM; on CDK2, 12 nM; at CDK7, more than 10000 nM; against CDK1, 503 nM.

`CC(=O)NC[C@H]1CCC(F)(F)CN1C(=O)c1nc(Nc2cc(OC3CCC3)ccn2)ccc1C` [Compound 16, (R)—N-((1-(6-((4-cyclobutoxypyridin-2-yl)amino)-3-methylpyridine-2-carbonyl)-5,5-difluoropiperidin-2-yl)methyl)acetamide]: the values for the IC50 against CDK9, against CDK2 and against CDK7 were 54.6 nM, 6350 nM and more than 10000 nM, respectively.

Regarding `CC(=O)NC[C@H]1CCC(F)(F)CN1C(=O)c1nc(Nc2cc(C(C)(C)C)ccn2)ccc1C` [Compound 17, (R)—N-((1-(6-((4-(t-butyl)pyridin-2-yl)amino)-3-methylpyridine-2-carbonyl)-5,5-difluoropiperidin-2-yl)methyl)acetamide], the values for the half-maximal inhibitory concentration (IC50) against CDK9, at CDK2 and against CDK1 were 19.2 nM, 2870 nM and more than 10000 nM, respectively.

Turning to `CC(=O)NC[C@H]1CCC(F)(F)CN1C(=O)c1nc(Nc2ccccn2)ccc1C` [Compound 22, (R)—N-((5,5-difluoro-1-(3-methyl-6-(pyridin-2-ylamino)pyridine-2-carbonyl)piperidin-2-yl)methyl)acetamide], the figures for the IC50 against CDK9, against CDK2 and on CDK1 were 35 nM, more than 10000 nM and more than 10000 nM, respectively.

On to `Cc1ccc(Nc2cc(C#N)ccn2)nc1C(=O)N1CC(F)(F)CC[C@@H]1CNC(=O)OC(C)(C)C` [Compound 31, (R)-((1-(6-((4-cyanopyridin-2-yl)amino)-3-methylpyridine-2-carbonyl)-5,5-difluoropiperidin-2-yl)methyl)t-butyl carbamate], for which the half-inhibitory concentration (IC50) was 3.7 nM at CDK9, 180 nM at CDK2, 7030 nM on CDK7 and 1470 nM at CDK1.

For `Cc1ccc(Nc2cc(OC(F)(F)F)ccn2)nc1C(=O)N1CC(F)(F)CC[C@@H]1CNS(C)(=O)=O` [Compound 32, (R)—N-((5,5-difluoro-1-(3-methyl-6-((4-(trifluoromethoxy)pyridin-2-yl)amino)pyridine-2-carbonyl)piperidin-2-yl)methyl)methanesulfonamide], the IC50 on CDK9 worked out at 11.6 nM; against CDK2 it was 305 nM; against CDK7 it was 780 nM; against CDK1, 1390 nM.

`Cc1ccc(Nc2cc(OC(F)(F)F)ccn2)nc1C(=O)N1CC(F)(F)CC[C@@H]1CNC(=O)OC(C)(C)C` [Compound 33, (R)-((5,5-difluoro-1-(3-methyl-6-((4-(trifluoromethoxy)pyridin-2-yl)amino)pyridine-2-carbonyl)piperidin-2-yl)methyl)t-butyl carbamate]: the IC50 against CDK9 is 38 nM; at CDK2, 1420 nM; on CDK7, more than 10000 nM.

For `CCOc1ccnc(Nc2ccc(C)c(C(=O)N3CC(F)(F)CC[C@@H]3CNC(C)=O)n2)c1` [Compound 35, (R)—N-((1-(6-((4-ethoxypyridin-2-yl)amino)-3-methylpyridine-2-carbonyl)-5,5-difluoropiperidin-2-yl)methyl)acetamide], the IC50 against CDK9 was 5 nM; against CDK2 it was 6840 nM; on CDK7, more than 10000 nM; against CDK1, more than 10000 nM.

On to `CCOc1ccnc(Nc2ccc(C)c(C(=O)N3CC(F)(F)CC[C@@H]3CNC(=O)OC(C)(C)C)n2)c1` [Compound 36, (R)-((1-(6-((4-ethoxypyridin-2-yl)amino)-3-methylpyridine-2-carbonyl)-5,5-difluoropiperidin-2-yl)methyl)t-butyl carbamate], for which the half-maximal inhibitory concentration (IC50) against CDK9 is 231 nM; against CDK2, more than 10000 nM; at CDK7, more than 10000 nM.

As for `Cc1ccc(Nc2cc(OC(F)(F)F)ccn2)nc1C(=O)N1CCCC[C@@H]1CNC(=O)OC(C)(C)C` [Compound 41, (R)-((1-(3-methyl-6-((4-(trifluoromethoxy)pyridin-2-yl)amino)pyridine-2-carbonyl)piperidin-2-yl)methyl)t-butyl carbamate], the IC50 against CDK9 was 245 nM; against CDK2, 9260 nM; against CDK7, more than 10000 nM.

For `Cc1ccc(Nc2cc(OC(F)(F)F)ccn2)nc1C(=O)N1CCCN2CCCC2C1` (stereo not shown) [Compound 46, (Hexahydro-1H-pyrrolo[1,2-a][1,4]diazepin-2-2(3H)-yl)(3-methyl-6-((4-(trifluoromethoxy)pyridin-2-yl)amino)pyridin-2-yl)methanone], the IC50 at CDK9 was 86.9 nM; at CDK2, 770 nM; against CDK1 it was 4120 nM.

As for `CCOc1ccnc(Nc2ccc(C)c(C(=O)N3CC(F)(F)CC[C@@H]3CNC(=O)OC)n2)c1` [Compound 53, (R)-((1-(6-((4-ethoxypyridin-2-yl)amino)-3-methylpyridine-2-carbonyl)-5,5-difluoropiperidin-2-yl)methyl)methyl carbamate], the IC50 against CDK9 was 19.7 nM; at CDK2, more than 10000 nM; against CDK1 it was more than 10000 nM.

For `CC(=O)NC[C@H]1CCC(F)(F)CN1C(=O)c1cc(Nc2cc(OC(F)(F)F)ccn2)ccc1C` [Compound 68, (R)—N-((5,5-difluoro-1-(2-methyl-5-((4-(trifluoromethoxy)pyridin-2-yl)amino)benzoyl)piperidin-2-yl)methyl)acetamide], the IC50 against CDK9 is 265 nM; against CDK2, more than 10000 nM; against CDK1, more than 10000 nM.
